# Reference: patent US7553969B1, “Substituted phenethylamine derivatives” (Chugai Seiyaku Kabushiki Kaisha, priority 1999, dated 2009)
# Where a SMILES comes first, the peptide text is derived from it. [ ]: non-standard residue; d: D form. The star is where a group is joined. ξ: configuration not given here. NMeTyr(3-tBu) = CN[C@@H](Cc1ccc(O)c(C(C)(C)C)c1)C(=O)O; ξNMeTyr(3-tBu) = CNC(Cc1ccc(O)c(C(C)(C)C)c1)C(=O)O; Tyr(3-tBu) = CC(C)(C)c1cc(C[C@H](N)C(=O)O)ccc1O; Phe(4-F) = N[C@@H](Cc1ccc(F)cc1)C(=O)O; NMetBuAla = CN[C@@H](CC(C)(C)C)C(=O)O; NMe2Thi = CN[C@@H](Cc1cccs1)C(=O)O; ξW = NC(Cc1c[nH]c2ccccc12)C(=O)O; NMeL = CN[C@@H](CC(C)C)C(=O)O; NMeV = CN[C@H](C(=O)O)C(C)C; NHPr = CCCN*
# Assays:
# [1] = tested on: specimen of longitudinal muscle in the duodenum extracted from a rabbit (motilin-induced contraction); experiment: Action on the motilin-induced contraction of a specimen of longitudinal muscle in the duodenum extracted from a rabbit; conditions: Oryctolagus cuniculus, organ bath, Krebs solution 28° C., read-out: Contraction suppressing test, pA2 (converted)
# Experimental: Action on the Contraction of a Specimen of Longitudinal Muscle in the Duodenum Extracted from a Rabbit
# The action on the motilin-induced contraction of a specimen of longitudinal muscle in the duodenum extracted from a rabbit was investigated by the following method. A duodenum specimen (5×15 mm) extracted from a slaughtered rabbit was suspended in an organ bath (10 ml) such that the longitudinal muscle would run vertically; the bath was filled with a Krebs solution kept at 28° C. A mixed gas (95% O2 and 5% CO2) was continuously bubbled into the Krebs solution and the contraction of the duodenum specimen was recorded isotonically (with a 1-g load) via an isotonic transducer (ME-3407, ME Commercial, Tokyo, Japan). The degree of contraction was expressed in relative values, with the contraction by acetylcholine at a dose of 10^−4 M being taken as 100%. The activity of the compound was calculated as pA2 value indicating its effect on the dose-dependent muscle contraction by the motilin put into the organ bath.
# motilin receptor = molecular target: T1, motilin receptor (Oryctolagus cuniculus, UniProt G1T803); experiment: Motilin receptor binding test (125I motilin, rabbit duodenum protein sample); conditions: 125I motilin 25 pM, concentration reducing specific binding by 50%
# T1 construct: homogenized in 50 mM Tris buffer to prepare a protein sample; from tissue; host or cells: rabbit duodenum homogenate (mucous membrane separated)
# Experimental: Motilin receptor binding test
# A motilin receptor binding test was conducted in the following manner [Vantrappen et al., Regul. Peptides, 15, 143 (1986)]. The duodenum was extracted from a slaughtered rabbit, had the mucous membrane separated and homogenized in 50 mM Tris buffer to prepare a protein sample. The protein sample was incubated together with ^125I motilin 25 pM and thereafter the radioactivity bound to the protein was measured. Specific binding was defined as the difference between the radioactivity in the case of adding a great excess amount of motilin (10^−7 M) and that in the case of no adding. The activity of the compound was expressed by IC50 (in nM), as the concentration sufficient to reduce the specific binding by 50%.
# T1 sequence (G1T803 1-400): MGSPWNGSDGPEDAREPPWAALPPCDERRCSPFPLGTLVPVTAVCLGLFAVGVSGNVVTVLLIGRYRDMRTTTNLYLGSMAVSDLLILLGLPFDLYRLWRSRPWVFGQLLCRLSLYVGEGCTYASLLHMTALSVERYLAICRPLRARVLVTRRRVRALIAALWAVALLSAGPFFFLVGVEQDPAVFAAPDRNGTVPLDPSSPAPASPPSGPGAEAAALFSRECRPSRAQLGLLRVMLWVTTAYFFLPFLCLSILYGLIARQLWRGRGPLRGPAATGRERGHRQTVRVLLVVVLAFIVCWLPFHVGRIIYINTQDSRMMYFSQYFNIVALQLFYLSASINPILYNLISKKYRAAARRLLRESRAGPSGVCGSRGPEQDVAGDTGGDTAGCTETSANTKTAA
SMILES,IC50 (motilin receptor) [nM],Kb [1] [nM]
"CC(C)[C@@H](C(=O)N[C@H](CNS(N)(=O)=O)Cc1ccc(O)c(C(C)(C)C)c1)N(C)C(=O)[C@@H](N)Cc1ccc(F)cc1 [Example 12, 2-(2-(2-amino-3-(4-fluorophenylpropanoyl-N-methylamino)-3-methyl)butyrylamino)-3-(3-tert-butyl-4-hydroxyphenyl)propylsulfamide]",0.52,0.501
"CNC(=O)[C@H](Cc1ccc(O)c(C(C)(C)C)c1)N(C)C(=O)[C@H](C(C)C)N(C)C(=O)[C@@H](N)Cc1ccc(F)cc1 [Example 36, Phe(4-F)-N-Me-Val-N-Me-Tyr(3-tBu)-NHMe] (H-[Phe(4-F)]-[NMeV]-[NMeTyr(3-tBu)]-NHMe)",2.3,1.58
"CCNC(=O)[C@H](Cc1ccc(O)c(C(C)(C)C)c1)N(C)C(=O)[C@H](C(C)C)N(C)C(=O)[C@@H](N)Cc1ccc(F)cc1 [Example 104, Phe(4-F)-N-Me-Val-N-Me-Tyr(3-tBu)-NHEt] (H-[Phe(4-F)]-[NMeV]-[NMeTyr(3-tBu)]-NHEt)",0.32,0.794
"CCN[C@@H](Cc1ccc(F)cc1)C(=O)N(C)[C@H](C(=O)N[C@@H](Cc1ccc(O)c(C(C)(C)C)c1)C(=O)NC)C(C)C [Example 33, N-Et-Phe(4-F)-N-Me-Val-Tyr(3-tBu)-NHMe]",1.7,3.98
"CCCNC(=O)[C@H](Cc1ccc(O)c(C(C)(C)C)c1)NC(=O)[C@H](C(C)C)N(C)C(=O)[C@@H](N)Cc1ccc(F)cc1 [Example 119, Phe(4-F)-N-Me-Val-Tyr(3-tBu)-NH-n-Pr] (H-[Phe(4-F)]-[NMeV]-[Tyr(3-tBu)]-NHPr)",0.4,0.398
"CCN(C(=O)[C@H](C(C)C)N(C)C(=O)[C@H](Cc1ccc(F)cc1)NC)[C@@H](Cc1ccc(O)c(C(C)(C)C)c1)C(N)=O [Example 40, N-Me-Phe(4-F)-N-Me-Val-N-Et-Tyr(3-tBu)-NH2]",1.6,2.51
"CC(C)[C@@H](C(=O)N[C@H](CC(N)=O)Cc1ccc(O)c(C(C)(C)C)c1)N(C)C(=O)[C@@H](N)Cc1ccc(F)cc1 [Example 15, 2-((2-amino-3-(4-fluorophenyl)propionyl)-N-methylamino)-3-methylbutyric acid 2-(3-t-butyl-4-hydroxyphenyl)-1-carbamidomethylethylamide]",0.82,3.16

# The next lines start with results.
IC50 (motilin receptor) [nM],SMILES,Kb [1] [nM]
1.7,"CCN(C(=O)[C@H](C(C)C)N(C)C(=O)[C@@H](N)Cc1ccc(F)cc1)[C@@H](Cc1ccc(O)c(C(C)(C)C)c1)C(=O)NCO [Example 127, Phe(4-F)-N-Me-Val-N-Et-Tyr(3-tBu)-NHCH2OH]",2
2,"CC(C)C[C@@H](C(=O)N(C)[C@@H](Cc1ccc(O)c(C(C)(C)C)c1)C(N)=O)N(C)C(=O)[C@@H](N)Cc1ccc(F)cc1 [Example 144, Phe(4-F)-N-Me-Leu-N-Me-Tyr(3-tBu)-NH2] (H-[Phe(4-F)]-[NMeL]-[NMeTyr(3-tBu)]-NH2)",3.16
4.1,"CN(C(=O)[C@@H](N)Cc1ccc(F)cc1)[C@@H](CC(C)(C)C)C(=O)N(C)[C@@H](Cc1ccc(O)c(C(C)(C)C)c1)C(N)=O [Example 148, Phe(4-F)-N-Me-Leu(γ-Me)-N-Me-Tyr(3-tBu)-NH2] (H-[Phe(4-F)]-[NMetBuAla]-[NMeTyr(3-tBu)]-NH2)",3.98
2.4,"CN(C(=O)[C@@H](N)Cc1ccc(F)cc1)[C@@H](Cc1cccs1)C(=O)N(C)[C@@H](Cc1ccc(O)c(C(C)(C)C)c1)C(N)=O [Example 163, Phe(4-F)-N-Me-Ala(β-2-thienyl)-N-Me-Tyr(3-tBu)-NH2] (H-[Phe(4-F)]-[NMe2Thi]-[NMeTyr(3-tBu)]-NH2)",15.8
0.57,"CC(C)[C@@H](C(=O)N(C)C(Cc1ccc(O)c(C(C)(C)C)c1)C(N)=O)N(C)C(=O)C(N)Cc1c[nH]c2ccccc12 (stereo partly drawn) [Example 183, Trp-N-Me-Val-N-Me-Tyr(3-tBu)-NH2] (H-[ξW]-[NMeV]-[ξNMeTyr(3-tBu)]-NH2)",0.316
